In article PMC6014988, “Precision therapeutic targeting of human cancer cell motility” (Nature Communications, 2018):

Key:
[1] = Schiff-base formation with L-alanine, NMR; type: physicochemical; conditions: 27°C (18 h) then 37°C, total 72 hours
Description: Response to Reviewers' comments:
We wish to thank reviewers for their time and thoughtful review. Please find below point-by-point responses to reviewer queries. Associated changes in the manuscript are underlined.
Reviewer (your email indicates #3, the review letter indicates #4):
1. While Schiff-base formation may be reversible, the reverse reaction may not occur during the life of the protein. Considering KBU2046’s binding affinity is proposed to be driven by a single H-bonding interaction with the carbonyl in question, studies should be conducted to ensure the formation of a Schiff base is not occurring.
Response. To specifically examine Schiff-base formation, we incubated KBU2046 with L-alanine at 27°C (18 h) and then 37°C for a total 72 hours, and observed no change in 1H or 13C NMR spectra of drug from the original observed spectra for KBU2046 alone. This exposure […]
product in the presence of a biologically relevant, representative primary amine. These studies were conducted by co-author Karl Scheidt, Professor of chemistry at Northwestern University.
Attached to this letter is a detailed description of the experiment.
These new experimental findings are concordant with our other findings presented in the manuscript. […]

[2] = tested on: human prostate cells (PC3, PC3-M, 1532NPTX, 1542NPTX, 1532CPTX, 1542CPTX); test: Cell invasion, panel of human prostate cells; type: cell-based
Procedure: Human prostate metastatic cells (PC3, PC3-M), and HPV-transformed normal (1532NPTX, 1542NPTX) and primary cancer (1532CPTX, 1542CPTX) cells, were treated with 10 µM genistein (G), KBU2046 (46), or vehicle (CO), and after 3 days, cell invasion was measured. Values are mean ± SEM of a single experiment in replicates of N = 4, with similar findings in multiple separate experiments (also N = 4). c Single-cell migration. Cell migration was measured after treatment for 3 days with 10 µM KBU2046 or vehicle (control). Values are mean ± SEM of a single experiment in replicates of N = 24, with similar findings in a separate experiment (also N = 24). *Denotes Student’s t-test P value <0.05, compared to controls. d Human cord blood hematopoietic stem cell colony formation assay. Values are the mean ± SD number of total, CFU-GM, CFU-GEMM, or BFU-E colonies at 14 days after treatment with KBU2046, from a single experiment in replicates of N = 2. e Induction of estrogen-responsive genes. Values are the mean ± SD of a single experiment, with similar results seen in a separate experiment, both in replicates of N = 2
Boyden chamber cell invasion assays were performed as previously described by us[30], using either denatured collagen (BD Biosciences) or type IV human collagen (BD Biosciences), with all experiments repeated, each in N = 4 replicates. […]

[3] = biological target: T1, client kinase binding to CDC37/HSP90β heterocomplexes in HEK293T cells (Homo sapiens, UniProt P08238+Q16543); test: LUMIER assay of client kinase binding; type: cell-based
T1 construct: expressed in transfected cells; host or cells: HEK293T
T1 sequence (P08238 whole entry): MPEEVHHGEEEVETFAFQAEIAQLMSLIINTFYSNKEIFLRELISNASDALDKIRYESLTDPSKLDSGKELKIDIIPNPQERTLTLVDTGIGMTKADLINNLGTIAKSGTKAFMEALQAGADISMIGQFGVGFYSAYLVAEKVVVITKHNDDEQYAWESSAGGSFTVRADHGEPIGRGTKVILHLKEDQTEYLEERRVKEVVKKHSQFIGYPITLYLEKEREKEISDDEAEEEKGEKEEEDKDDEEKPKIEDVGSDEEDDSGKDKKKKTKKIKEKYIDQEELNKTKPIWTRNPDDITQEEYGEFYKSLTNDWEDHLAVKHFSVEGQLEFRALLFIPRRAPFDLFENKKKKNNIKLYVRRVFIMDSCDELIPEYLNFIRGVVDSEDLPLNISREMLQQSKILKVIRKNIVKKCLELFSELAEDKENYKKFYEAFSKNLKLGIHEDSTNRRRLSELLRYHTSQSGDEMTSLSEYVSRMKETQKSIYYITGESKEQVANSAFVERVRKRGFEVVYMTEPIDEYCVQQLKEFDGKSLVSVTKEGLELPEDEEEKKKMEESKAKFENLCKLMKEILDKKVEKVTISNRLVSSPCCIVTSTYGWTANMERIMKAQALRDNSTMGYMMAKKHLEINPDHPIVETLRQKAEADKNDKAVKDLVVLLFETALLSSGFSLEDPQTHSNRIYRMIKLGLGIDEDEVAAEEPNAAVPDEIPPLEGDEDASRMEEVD
T1 sequence (Q16543 whole entry): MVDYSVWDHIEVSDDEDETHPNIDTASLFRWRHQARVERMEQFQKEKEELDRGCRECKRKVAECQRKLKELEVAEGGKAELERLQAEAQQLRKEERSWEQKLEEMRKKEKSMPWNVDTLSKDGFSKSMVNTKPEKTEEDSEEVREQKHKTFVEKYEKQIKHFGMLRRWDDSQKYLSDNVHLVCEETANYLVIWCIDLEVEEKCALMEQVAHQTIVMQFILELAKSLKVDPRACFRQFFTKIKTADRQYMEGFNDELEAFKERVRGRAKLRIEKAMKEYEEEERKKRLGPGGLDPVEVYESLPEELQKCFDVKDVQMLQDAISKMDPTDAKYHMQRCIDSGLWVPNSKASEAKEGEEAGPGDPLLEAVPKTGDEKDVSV
Procedure: The LUMIER assay was performed as described, using reagents generously provided by that group.
Supplementary Figures 17. KBU2046-mediated changes in the signature of client proteins bound to HSP90β/CDC37 mediate effects upon cell motility.
LUMIER assay (a). HEK293T cells stably transfected with HSP90β-luciferase were transfected with 1 of 420 different FLAG-tagged protein kinases, treated with 10 µM KBU2046 for 3 days, and LUMIER assays performed as described 12. All experiments had N = 5 vehicle treated control plus N = 5 KBU2046 treated separate wells of cells. Those yielding a t-test p value <0.05 […]
in experiment #1, or those whose values were at or below baseline, were repeated in experiment […]
hetercomplex association with KBU2046 treatment in the same direction in both experiments were selected. Of 420 kinase proteins tested, 17 (4%) met these criteria (graphically depicted in manuscript Fig. 6a). For these 17 kinases, the experiment was repeated except that HEK293T cells were treated with TGFβ for the last 24 hrs of the 3 day incubation (graphically depicted in manuscript Fig. 6b). Wound healing assay (b-d). […]

200 different kinases = test: Kinex kinase assay system; type: biochemical, human; conditions: 1 and 10 μM; 10 μM interfered with readout
Description: There were two initial false positives (for a false positive rate of 0.4%), that were subsequently found to be negative in a dedicated follow up analysis. Specific and important negative findings include MKK4, p38 MAPK (α, β, γ and δ […]
by competing for phospho-acceptor binding.
Kinase assay system #2. The Kinex™ kinase assay system (Kinexus Proteomics Company).
This platform uses recombinant human protein kinases expressed in an insect expression system, thus allowing an avenue for post-translational modification. Also, this platform measures inhibition of ATP binding. This platform putatively measured 200 different kinases, and we […]
tested KBU2046 at 1 and 10 μM. […] There were two […]
important technical issues. First, at 10 μM KBU2046 interfered with the colorimetric-based […]
However, while considering the above factors, this screen was informative for a number of […]
function by competing for ATP binding in the active site.
Kinase assay system #3. KinaseProfiler™ and PhosphataseProfiler™ assay platforms (Millipore). This platform is radiometric-based (considered gold standard). It measures competition with respect to ATP for kinases and substrate protein for phosphatases. Most proteins were expressed via an insect-based system, and it evaluates a panel of 284 kinases and 20 phosphatases. There were two initial false positives, for a false positive rate of 0.7%, but both […]

## O=C1c2ccccc2OCC1c1ccc(F)cc1 (racemic) [KBU2046, (±)-3(4-fluorophenyl)chroman-4-one]
[1]
  change in 1H or 13C NMR spectra (Schiff-base formation): no change
[2]; 10 µM, 3 days
  cell invasion: inhibits cell invasion with efficacy equal-to-or-greater-than that of genistein
[2]; after 3 days treatment of cells
  effect upon invasion: 50%
[3]; 10 µM, 3 days
  number of kinases with decreased binding: 7
  number of kinases with increased binding: 10
[3]; TGFβ-treated cells
  RAF1 binding to complexes: decreased binding
  RIPK1 binding to complexes: decreased
  SGK3 binding to complexes: increased
[3]; as stated in rebuttal letter
  share of client proteins with affected binding: 1%
[3]; in cells
  CK2 binding to the HSP90β/CDC37 heterocomplex: not alter the binding of CK2
[3]; of 420 kinase proteins screened
  share of kinases with significantly changed binding: 4%
[3]; of 420 kinase proteins screened, 10 µM, 3 days
  number of kinases with significantly changed binding: 17
200 different kinases
  inhibition of ATP binding: completely negative
